ChEMBL document CHEMBL1909046, “DrugMatrix in vitro pharmacology data”

Experiments:
[1] = target: Beta-3 adrenergic receptor (Homo sapiens, UniProt P13945); assay: DRUGMATRIX: Adrenergic beta3 radioligand binding (ligand: [125I] Cyanopindolol); type: cell membranes, HEK293, Membrane; settings: hek293; Not Active = under 50% inhibition at 10 µM
[2] = target: C-C chemokine receptor type 5 (Homo sapiens, UniProt P51681); type: cell membranes, Membrane; settings: hek293; also: in other assays of this panel Not Active means under 50% inhibition at 10 µM
Mu-type opioid receptor = Mu-type opioid receptor (Homo sapiens, UniProt P35372); assay: DRUGMATRIX: Opiate mu (OP3, MOP) radioligand binding (ligand: [3H] Diprenorphine); type: cell membranes, CHO-K1, Membrane; settings: cho-k1; Not Active = under 50% inhibition at 10 µM
[3] = target: T1, Receptor-type tyrosine-protein phosphatase C (Homo sapiens, UniProt P08575); parameters: species or system Escherichia coli;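 also: inhibition of CD45 enzyme activity measured using DiFMUP as substrate; in other assays of this panel Not Active means under 50% inhibition at 10 µM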
T1 sequence (P08575 whole entry): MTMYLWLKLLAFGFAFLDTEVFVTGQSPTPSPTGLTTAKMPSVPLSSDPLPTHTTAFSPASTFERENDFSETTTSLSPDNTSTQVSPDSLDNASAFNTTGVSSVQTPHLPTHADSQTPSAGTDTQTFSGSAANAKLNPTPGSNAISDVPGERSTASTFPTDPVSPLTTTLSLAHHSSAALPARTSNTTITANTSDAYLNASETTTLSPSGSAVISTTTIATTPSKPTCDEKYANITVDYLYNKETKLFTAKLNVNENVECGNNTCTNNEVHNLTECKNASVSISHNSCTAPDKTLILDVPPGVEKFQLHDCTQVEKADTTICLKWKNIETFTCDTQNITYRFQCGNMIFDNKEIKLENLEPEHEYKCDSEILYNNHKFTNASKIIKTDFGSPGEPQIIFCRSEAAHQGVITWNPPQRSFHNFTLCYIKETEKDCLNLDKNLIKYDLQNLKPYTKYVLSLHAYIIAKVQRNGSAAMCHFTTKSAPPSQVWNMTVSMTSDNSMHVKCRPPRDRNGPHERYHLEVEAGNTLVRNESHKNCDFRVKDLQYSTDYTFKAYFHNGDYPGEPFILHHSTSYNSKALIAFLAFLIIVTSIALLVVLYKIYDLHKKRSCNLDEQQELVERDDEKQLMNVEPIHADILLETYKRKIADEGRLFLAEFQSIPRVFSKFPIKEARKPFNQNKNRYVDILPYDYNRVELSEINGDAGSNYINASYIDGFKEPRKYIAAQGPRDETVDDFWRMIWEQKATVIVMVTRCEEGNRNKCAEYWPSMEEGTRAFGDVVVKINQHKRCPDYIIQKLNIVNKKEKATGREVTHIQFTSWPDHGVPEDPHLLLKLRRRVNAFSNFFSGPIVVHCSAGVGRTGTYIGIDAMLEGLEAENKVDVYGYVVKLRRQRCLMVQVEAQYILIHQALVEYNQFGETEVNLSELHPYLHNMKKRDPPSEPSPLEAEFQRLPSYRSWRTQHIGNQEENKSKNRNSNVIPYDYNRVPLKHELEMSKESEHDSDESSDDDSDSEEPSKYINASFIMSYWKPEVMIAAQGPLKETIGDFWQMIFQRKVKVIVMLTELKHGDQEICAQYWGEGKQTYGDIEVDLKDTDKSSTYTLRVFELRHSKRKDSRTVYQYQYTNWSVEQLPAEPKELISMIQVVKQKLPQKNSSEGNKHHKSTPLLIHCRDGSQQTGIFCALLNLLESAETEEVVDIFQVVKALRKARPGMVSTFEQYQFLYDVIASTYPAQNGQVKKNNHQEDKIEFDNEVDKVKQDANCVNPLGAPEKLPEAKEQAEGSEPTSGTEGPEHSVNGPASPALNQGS

Cytochrome P450 1A2 = target: T2, Cytochrome P450 1A2 (Homo sapiens, UniProt P05177); settings: bti-tn-5b1-4; also: in other assays of this panel Not Active means under 50% inhibition at 10 µM
T2 sequence (P05177 whole entry): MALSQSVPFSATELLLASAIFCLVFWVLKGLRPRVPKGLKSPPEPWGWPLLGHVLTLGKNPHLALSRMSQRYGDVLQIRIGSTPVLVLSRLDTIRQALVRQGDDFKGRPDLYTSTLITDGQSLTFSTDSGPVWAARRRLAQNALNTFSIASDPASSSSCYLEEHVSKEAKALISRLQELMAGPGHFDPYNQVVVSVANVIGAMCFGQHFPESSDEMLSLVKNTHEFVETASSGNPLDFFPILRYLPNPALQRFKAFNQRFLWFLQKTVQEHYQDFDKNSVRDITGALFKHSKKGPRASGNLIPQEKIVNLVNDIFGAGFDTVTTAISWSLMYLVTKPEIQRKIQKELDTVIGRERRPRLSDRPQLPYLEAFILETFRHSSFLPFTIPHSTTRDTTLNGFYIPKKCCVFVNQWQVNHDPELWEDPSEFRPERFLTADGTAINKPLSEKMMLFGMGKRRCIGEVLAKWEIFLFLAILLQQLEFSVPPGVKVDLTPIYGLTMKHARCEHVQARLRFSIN

D(1A) dopamine receptor = D(1A) dopamine receptor (Homo sapiens, UniProt P21728); assay: DRUGMATRIX: Dopamine D1 radioligand binding (ligand: [3H] SCH-23390); type: cell membranes, CHO, Membrane; settings: cho; Not Active = under 50% inhibition at 10 µM
[4] = DRUGMATRIX: Calcium Channel Type L, Phenylalkylamine radioligand binding (ligand: [3H] (-)-Desmethoxyverapamil (D-888)); type: cell membranes, Rattus norvegicus, Wistar, Brain, Membrane; settings: Not Active = under 50% inhibition at 10 µM

Sequence of D(1A) dopamine receptor (P21728 whole entry): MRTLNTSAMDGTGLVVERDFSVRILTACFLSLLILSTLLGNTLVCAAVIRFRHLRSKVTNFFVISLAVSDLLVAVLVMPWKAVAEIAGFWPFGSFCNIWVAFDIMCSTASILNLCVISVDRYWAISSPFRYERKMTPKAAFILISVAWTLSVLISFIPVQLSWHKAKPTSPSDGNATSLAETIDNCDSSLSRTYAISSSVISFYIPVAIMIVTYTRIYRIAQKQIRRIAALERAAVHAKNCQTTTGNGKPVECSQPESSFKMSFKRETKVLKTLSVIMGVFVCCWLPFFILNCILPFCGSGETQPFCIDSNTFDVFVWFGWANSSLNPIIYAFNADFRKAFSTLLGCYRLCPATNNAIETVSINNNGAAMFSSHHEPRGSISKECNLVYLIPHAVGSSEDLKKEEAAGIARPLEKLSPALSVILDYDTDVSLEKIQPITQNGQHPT
Sequence of Mu-type opioid receptor (P35372 whole entry): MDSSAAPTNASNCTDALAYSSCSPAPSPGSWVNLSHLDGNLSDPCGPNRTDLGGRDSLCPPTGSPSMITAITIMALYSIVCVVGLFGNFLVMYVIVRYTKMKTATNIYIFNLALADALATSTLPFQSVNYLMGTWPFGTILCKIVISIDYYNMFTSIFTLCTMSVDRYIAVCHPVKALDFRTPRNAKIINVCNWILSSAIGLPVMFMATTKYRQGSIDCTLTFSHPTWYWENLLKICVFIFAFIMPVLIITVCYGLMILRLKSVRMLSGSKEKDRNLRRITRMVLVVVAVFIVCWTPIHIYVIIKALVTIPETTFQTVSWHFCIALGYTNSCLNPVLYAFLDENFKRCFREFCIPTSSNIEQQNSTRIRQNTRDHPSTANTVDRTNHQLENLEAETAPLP
Sequence of C-C chemokine receptor type 5 (P51681 whole entry): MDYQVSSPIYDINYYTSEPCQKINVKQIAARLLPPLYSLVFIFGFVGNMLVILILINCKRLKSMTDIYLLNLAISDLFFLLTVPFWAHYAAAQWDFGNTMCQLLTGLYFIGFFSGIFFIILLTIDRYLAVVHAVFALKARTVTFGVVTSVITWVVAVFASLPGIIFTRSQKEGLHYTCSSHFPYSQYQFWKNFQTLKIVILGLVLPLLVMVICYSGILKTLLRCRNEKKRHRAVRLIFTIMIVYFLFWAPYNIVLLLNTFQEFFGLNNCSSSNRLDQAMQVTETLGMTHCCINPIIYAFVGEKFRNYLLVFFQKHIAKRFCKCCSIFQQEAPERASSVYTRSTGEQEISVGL
Sequence of Beta-3 adrenergic receptor (P13945 whole entry): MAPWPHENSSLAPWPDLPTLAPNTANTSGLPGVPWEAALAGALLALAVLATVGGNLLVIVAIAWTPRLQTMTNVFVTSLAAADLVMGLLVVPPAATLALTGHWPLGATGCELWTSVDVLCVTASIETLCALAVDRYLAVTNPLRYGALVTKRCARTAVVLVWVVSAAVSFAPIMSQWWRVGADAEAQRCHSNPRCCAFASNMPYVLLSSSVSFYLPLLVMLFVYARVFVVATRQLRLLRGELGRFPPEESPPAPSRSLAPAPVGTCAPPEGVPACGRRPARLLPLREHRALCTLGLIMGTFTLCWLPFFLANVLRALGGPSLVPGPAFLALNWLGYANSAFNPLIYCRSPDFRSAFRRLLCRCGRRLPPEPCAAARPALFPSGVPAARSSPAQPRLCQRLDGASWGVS

COc1cc(C(=O)NS(=O)(=O)c2ccccc2C)ccc1Cc1cn(C)c2ccc(NC(=O)OC3CCCC3)cc12 [ZAFIRLUKAST]
Not Active: IC50 [1] | IC50 [2] | IC50 (Mu-type opioid receptor) | IC50 [3] | IC50 (Cytochrome P450 1A2) | Ki (Cytochrome P450 1A2) | IC50 (D(1A) dopamine receptor) | IC50 [4] | Ki [4]

Cc1cn([C@H]2C[C@H](N=[N+]=[N-])[C@@H](CO)O2)c(=O)[nH]c1=O [ZIDOVUDINE]
Not Active: IC50 [1] | IC50 [2] | IC50 (Mu-type opioid receptor) | IC50 [3] | IC50 (Cytochrome P450 1A2) | Ki (Cytochrome P450 1A2) | IC50 (D(1A) dopamine receptor) | IC50 [4] | Ki [4]
